{"source": "BindingDB's records for doi:10.1021/jm9807003", "about": "(National Institute of Diabetes, 1999)", "assay": "Ability to inhibit GTP-gamma-S binding to Opioid receptor delta 1 of guinea pig caudate"}
{"smiles": "COc1ccc2c(c1O)[C@]13CCN(CC4CC4)[C@H](C2)[C@@H]1Cc1c([nH]c2ccccc12)C3", "note": "[17-cyclopropylmethyl-6,7-didehydro-4-hydroxy-3-methoxy-6,7:2',3'-indolmorphinan]", "values": [{"measurement": "Ki", "result": 22, "unit": "nM"}]}
